Assay results as given in PMC11513842, “Development of an orally bioavailable CDK12/13 degrader and induction of synthetic lethality with AKT pathway inhibition” (Cell Reports Medicine, 2024).
“And” between values parts separate entries of the source, which are not always exact repeats. Equal values may be shown once. Read-outs that look alike come from different tables or passages of the source.

Legend:
PC310 PDX = assay: PC310 patient-derived xenograft efficacy; format: in vivo, mouse; conditions: YJ1206 p.o. 100 mg/kg 3x/week, uprosertib p.o. 15 mg/kg 5x/week
Description: (§1) Six-week-old male CB17SCID mice obtained from Charles River (Stock # 236), were used to establish subcutaneous tumors on both dorsal flanks. Tumor dimensions were measured biweekly using digital calipers, applying the formula (π/6) (L × W^2), where L and W represent tumor length and width, respectively. At the study conclusion, mice were euthanized, and tumors were excised and weighed. The University of Michigan Institutional Animal Care and Use Committee (IACUC) approved all in vivo studies.
WA74 PDX model was developed at the University of Michigan during collection of a rapid autopsy case as part of the Michigan Legacy Tissue Program (MLTP). PC310 PDX model was obtained from Erasmus Medical Center, Rotterdam, the Netherlands. Both PDX lines were propagated in male CB17SCID mice by surgically implanting 2 mm^3 tumor fragments, coated with 100% Matrigel, into both flanks of mice. When tumors reached approximately 200 mm^3, mice were randomized into treatment groups. These groups received either 30 mg/kg YJ9069 via intravenous injection or 100 mg/kg YJ1206 by oral gavage, both administered three times per week, with or without 15 mg/kg uprosertib by oral gavage five days per week for 3–4 weeks. In accordance with IACUC guidelines, the maximum tumor size was limited to 2.0 cm in any dimension, and mice were euthanized if xenografts reached this endpoint.

[1] = tested on: castrated VCaP xenograft (VCaP-CRPC); assay: VCaP castration-resistant prostate cancer xenograft efficacy; format: in vivo, mouse; conditions: castrated VCaP xenograft, 31 days; YJ1206 p.o. 100 mg/kg 3x/week, uprosertib p.o. 15 mg/kg 5x/week
Description: as §1
(§2) For the VCaP castration-resistant tumor model, 3×10^6 VCaP cells were subcutaneously injected into both dorsal flanks of mice using a serum-free medium mixed with 50% Matrigel (BD Biosciences). Upon tumors reaching palpable size (∼200 mm^3), animals underwent castration. When tumors regrew to their pre-castration size, mice were randomized for treatment with 30 mg/kg YJ9069 or vehicle via intravenous injection or 100 mg/kg YJ1206 or vehicle, […]

[2] = tested on: castrated VCaP and 22Rv1 CDX models; assay: Castrated VCaP and 22Rv1 CDX models, combination efficacy; format: in vivo, mouse; conditions: YJ1206 p.o. 100 mg/kg 3x/week, uprosertib p.o. 15 mg/kg 5x/week
Description: as §1
as §2, with “vehicle, with or without 15 mg/kg uprosertib by oral gavage.” for “vehicle,”
For the 22Rv1 castration-resistant tumor model, mice underwent castration and then 12 days of recovery. Subsequently, 1 × 10^6 22Rv1 cells were subcutaneously injected into both dorsal flanks using a serum-free medium with 50% Matrigel (BD Biosciences). […]

VCaP cells [3] = assay: Cell viability assay (CellTiter-Glo, 5 days); format: cell-based, human
Description: (§3) Cells were seeded in 96-well plates and incubated at 37°C with 5% CO2 overnight. A series of compound dilutions were added into the cells. After 5 days incubation, cell proliferation was tested using the CellTiter-Glo assay (Promega) according to the manufacturer’s protocol. Luminescence was measured using the Infinite M1000 Pro plate reader (Tecan). Data analysis was conducted using GraphPad Prism software.

CDK12 and CDK13 = conditions: VCaP cells
Description: After treatment of varying conditions, cell lysates were prepared using RIPA buffer (ThermoFisher Scientific) supplemented with cOmplete protease inhibitor cocktail tablets (Sigma-Aldrich). The Pierce BCA Protein Assay Kit ([…]) was used to determine the protein concentrations. Proteins with an equal amount from each sample were loaded on NuPAGE 3–8% Tris-Acetate or 4–12% Bis-Tris protein gels (ThermoFisher Scientific) and subsequently transferred to membranes, which were blocked using 5% nonfat milk. Following blocking at room temperature for 1 h, the membrane was further incubated with varying primary antibodies at 4°C overnight. HRP-conjugated secondary antibodies were used for detection, and membrane imaging was conducted using an Odyssey Fc Imager (LI-COR Biosciences).

[4] = Pharmacokinetic profile in Sprague Dawley rats; format: in vivo, rat; conditions: SD rats
VCaP cells [5] = assay: Comet assay; format: cell-based, human; conditions: 100 nM, 12 h
Description: VCaP cells were seeded in 6-well plates one day prior to treatment. […] After 12 h incubation, the cells were trypsinized and resuspended at a concentration of 1 × 10^5 cells/mL in ice-cold PBS. The OxiSelect Comet Assay Kit (Cell Biolabs, STA-351) was used to assess DNA damage. Following the manufacturer’s protocol, cells were combined with pre-heated comet agarose at a 1:10 ratio, mixed thoroughly, and then transferred onto slides. The slides were incubated horizontally in the dark at 4°C for 20 min. Afterward, they were immersed in pre-chilled lysis buffer for 40 min at 4°C in the dark, followed by a 30-min incubation in pre-chilled alkaline solution at 4°C in the dark. Electrophoresis was then performed using alkaline solution at 30 V for 20 min. After electrophoresis, the slides were rinsed three times with pre-chilled deionized water, following with 70% ethanol for 5 min and completely dried at 37°C for 30 min. Subsequently, 100 μL of diluted Vista Green DNA dye was applied to each well. After 15 min incubation at room temperature, the comets were observed using a fluorescence microscope and quantified using ImageJ. The quantification figure was generated using GraphPad Prism software.

WPMY-1 = assay: Cell viability assay (CellTiter-Glo, 5 days); format: cell-based; conditions: Homo sapiens, 120 h; WPMY-1, 5 days of treatment, Figure 1F
Description: as §3

MCF7 = assay: Cell viability assay (CellTiter-Glo, 5 days); format: cell-based; conditions: Homo sapiens, 120 h; MCF7, 5 days of treatment, Figure 1F
Description: as §3

DU145 = assay: Cell viability assay (CellTiter-Glo, 5 days); format: cell-based; conditions: Homo sapiens, DU-145, 120 h; DU145, 5 days of treatment, Figure 1F
Description: as §3

LAPC4 = assay: Cell viability assay (CellTiter-Glo, 5 days); format: cell-based; conditions: Homo sapiens, 120 h; LAPC4, 5 days of treatment, Figure 1F
Description: as §3

MCF12A = assay: Cell viability assay (CellTiter-Glo, 5 days); format: cell-based; conditions: Homo sapiens, MCF-12A, 120 h, 5 days of treatment, Figure 1F
Description: as §3

CWR22RV1 = assay: Cell viability assay (CellTiter-Glo, 5 days); format: cell-based; conditions: Homo sapiens, 120 h; CWR22RV1, 5 days of treatment, Figure 1F
Description: as §3

MFM223 = assay: Cell viability assay (CellTiter-Glo, 5 days); format: cell-based; conditions: Homo sapiens, MFM-223, 120 h; MFM223, 5 days of treatment, Figure 1F
Description: as §3

BPH-1 = assay: Cell viability assay (CellTiter-Glo, 5 days); format: cell-based; conditions: Homo sapiens, 120 h; BPH-1, 5 days of treatment, Figure 1F
Description: as §3

22RV1 = assay: Cell viability assay (CellTiter-Glo, 5 days); format: cell-based; conditions: Homo sapiens, 120 h; 22RV1, 5 days of treatment, Figure 1F
Description: as §3

SK-BR-3 = assay: Cell viability assay (CellTiter-Glo, 5 days); format: cell-based; conditions: Homo sapiens, 120 h; SK-BR-3, 5 days of treatment, Figure 1F
Description: as §3

MDA-MB-468 = assay: Cell viability assay (CellTiter-Glo, 5 days); format: cell-based; conditions: Homo sapiens, 120 h; MDA-MB-468, 5 days of treatment, Figure 1F
Description: as §3

RWPE1 = assay: Cell viability assay (CellTiter-Glo, 5 days); format: cell-based; conditions: Homo sapiens, RWPE-1, 120 h; RWPE1, 5 days of treatment, Figure 1F
Description: as §3

MCF10A = assay: Cell viability assay (CellTiter-Glo, 5 days); format: cell-based; conditions: Homo sapiens, MCF-10A, 120 h, 5 days of treatment, Figure 1F
Description: as §3

PC3 = assay: Cell viability assay (CellTiter-Glo, 5 days); format: cell-based; conditions: Homo sapiens, PC-3, 120 h; PC3, 5 days of treatment, Figure 1F
Description: as §3

PrEC = assay: Cell viability assay (CellTiter-Glo, 5 days); format: cell-based; conditions: Homo sapiens, 120 h, 5 days of treatment, Figure 1F
Description: as §3

PNT2 = assay: Cell viability assay (CellTiter-Glo, 5 days); format: cell-based; conditions: Homo sapiens, 120 h; PNT2, 5 days of treatment, Figure 1F
Description: as §3

With Cn1ncc(Cl)c1-c1cc(C(=O)N[C@H](CN)Cc2ccc(F)c(F)c2)oc1Cl [uprosertib, reference compound] the “progressive disease (PD), waterfall plot (RECIST)” value (PC310 PDX) was 100%, the tumor growth inhibition (PC310 PDX) was “only moderate or mild tumor inhibition” and the “progressive disease (PD), waterfall plot (RECIST)” value [1] was 100%. For the same compound, the anti-tumor efficacy [2] was “moderate anti-tumor efficacy”.
For O=C(NCc1ccccc1)N(c1ccc(N2CCNCC2)cc1)[C@H]1CC[C@H](Nc2ncc3ccccc3n2)CC1 [YJ9068], the IC50 (VCaP cells [3]; VCaP cells, 5 days, Figure S1E, read-out: IC50) was 1.08 µM and the “CDK12/13 degradation (immunoblot)” value (CDK12 and CDK13) was “did not affect target protein levels”.
In the case of O=C1CCC(N2C(=O)c3ccc(N4CCC(N5CCN(c6ccc(N(C(=O)NCc7ccccc7)C7CCC(Nc8ncc9ccccc9n8)CC7)cn6)CC5)CC4)cc3C2=O)C(=O)N1 (centres unmarked) [YJ1205], the “CDK12/13 degradation (immunoblot)” value (CDK12 and CDK13) is reported as “potent degradation effects”, the “AUC(0-)” value ([4]; i.v. 2.5 mg/kg) is reported as 10.61568 µg·h/mL and the “AUC(0-t)” value ([4]; i.v. 2.5 mg/kg) is reported as 10.5196 µg·h/mL. It also gave a CL ([4]; i.v. 2.5 mg/kg) of 0.23584 L/h/kg, a Cmax ([4]; i.v. 2.5 mg/kg) of 4.14 µM and a T1/2 ([4]; i.v. 2.5 mg/kg) of 3.81 h. For the same compound, the Tmax ([4]; i.v. 2.5 mg/kg) was 0.08 h, the “AUC(0-)” value ([4]; oral 10 mg/kg) was 6.8428 µg·h/mL and the “AUC(0-t)” value ([4]; oral 10 mg/kg) was 6.679 µg·h/mL. For the same compound, the Cmax ([4]; oral 10 mg/kg) was 0.66 µM, the T1/2 ([4]; oral 10 mg/kg) was 4.2 h and the Tmax ([4]; oral 10 mg/kg) was 4.7 h.
With O=C1CCC(N2C(=O)c3ccccc3C2=O)C(=O)N1 (centres unmarked) [thalidomide, reference compound] the “CDK12/13 degradation (immunoblot)” value (CDK12 and CDK13) was “did not affect target protein levels”.
For CN(C)C/C=C/C(=O)Nc1ccc(C(=O)N2CCC[C@@H](Nc3ncc(Cl)c(-c4c[nH]c5ccccc45)n3)C2)cc1 [THZ531, reference compound], the “DNA damage (tail moment)” value (VCaP cells [5]) was “significant increase in the tail moment”, the IC50 (WPMY-1) was 0.311 µM and the IC50 (MCF7) was 0.356 µM. The IC50 (DU145) was 0.23 µM, the IC50 (LAPC4) was 0.00638 µM and the IC50 (MCF12A) was 0.31 µM. It also gave an IC50 (CWR22RV1) of 0.0697 µM, an IC50 (MFM223) of 0.0333 µM and an IC50 (BPH-1) of 0.356 µM. For the same compound, the IC50 (22RV1) was 0.0857 µM, the IC50 (SK-BR-3) was 0.0648 µM and the IC50 (MDA-MB-468) was 0.158 µM. For the same compound, the IC50 (RWPE1) was 0.404 µM, the IC50 (MCF10A) was 0.396 µM and the IC50 (PC3) was 0.12 µM. It also gave an IC50 (PrEC) of 0.335 µM, an IC50 (PNT2) of 1.53 µM and an IC50 (VCaP cells [3]; Homo sapiens, VCaP, 120 h, VCaP, 5 days of treatment, Figure 1F, read-out: IC50) of 0.0335 µM.
In the case of O=C1CCC(N2C(=O)c3ccc(N4CCC(N5CCN(c6ccc(N(C(=O)NCc7ccccc7)C7CCC(Nc8ncc9ccccc9n8)CC7)cc6)CC5)CC4)cc3C2=O)C(=O)N1 (centres unmarked) [YJ1105], the IC50 (VCaP cells [3]; VCaP cell viability, linker optimization, Figure S4B, read-out: VCaP IC50) is reported as 0.0151 µM and < 0.02 µM, the “CDK12/13 degradation (immunoblot)” value (CDK12 and CDK13) is reported as “potent degradation effects” and the “AUC(0-t)” value ([4]; i.v. 2.5 mg/kg) is reported as 8.03969 µg·h/mL. The CL ([4]; i.v. 2.5 mg/kg) was 0.28816 L/h/kg, the Cmax ([4]; i.v. 2.5 mg/kg) was 1.58 µM and the T1/2 ([4]; i.v. 2.5 mg/kg) was 7.05 h. The Tmax ([4]; i.v. 2.5 mg/kg) was 0.08 h, the “AUC(0-)” value ([4]; oral 10 mg/kg) was 9.8054 µg·h/mL and the “AUC(0-t)” value ([4]; oral 10 mg/kg) was 8.56743 µg·h/mL. It also gave a Cmax ([4]; oral 10 mg/kg) of 0.715 µM, a T1/2 ([4]; oral 10 mg/kg) of 7.2 h and a Tmax ([4]; oral 10 mg/kg) of 6 h. The “F(%) (bioavailability by oral gavage)” value ([4]; oral 10 mg/kg vs i.v. 2.5 mg/kg) was 26.64%.
